From patent US20080031950A1, “Novel anelgesic combination” (NECTID INC., priority 2007, published 2008)
Where a name gives a salt, the structure may show the parent alone.

System: patients suffering from Chronic non-cancer pain (CNCP)
Experiment: Controlled human clinical trial, pain scored by visual analogue scale (VAS)
Type: in vivo
Settings: mean ± SD, N = 10
Protocol: A typical study determined the efficacy of tramadol and […] as monotherapy and a combination of naproxen and a slow release tramadol for the treatment of pain and pain related conditions
• Tramadol hydrochloride: Generic Tramadol Hydrochloride tablets 50 mg, • Naproxen: Generic Neproxen tablets 250 mg • Slow Release Tramadol Hydrochloride: a) Example 1, b) Ultram ER 100 mg
• Treatment Drugs per day per patient • 1. Treatment A; Tramadol hydrochloride 100 mg • 2. Treatment B: Naproxen 250 mg • 3. Treatment C: Example 1 • 4. Treatment D: Ultram ER 100 mg+Naproxen 250 mg • 5. Treatment E: Example 2
The administered dosage comprised either tramadol hydrochloride (100 mg) or naproxen 250 mg or a combination of naproxen (250 mg) and slow release tramadol hydrochloride (100 mg) selected from Treatments D or a combination of naproxen 250 mg and a slow release tramadol 100 mg (Treatment C) was administered once a day to the patients in a long-term clinical trial.
40 patients were used in a clinical trial were suffering from Chronic non-cancer pain (CNCP), defined as pain for longer than 6 months, including neuropathic pain, osteoarthritis, rheumatoid arthritis, fibromyalgia, and back and musculoskeletal pain were included in the clinical trial. No effort was made to segregate the patients based on the type of pain nor did we evaluate the extent of pain relief on the basis of pain type.
Those patients with migraines, dental pain, abdominal pains (from chronic pancreatitis, kidney stones, etc.) and ischemic pain from vascular disease were excluded because they are usually not classified as CNCP. Patients with history of addiction (alcohol or drugs) were excluded from the trials
Randomization was performed with computer-generated random numbers in blocks of 10. Randomization codes of the monotherapy or combination therapy treatments were placed in sequentially numbered, opaque, sealed envelopes in the biopsy center.
Pain was assessed using a visual analogue scale (VAS) graded from 0-100 mm. Pain scoring was performed every three hours after drug administration for a total of 48 hours.
The patients were taught with a standard method by the physician how to use a VAS scoring from 0 to 100 mm to grade the intensity of pain experienced during the treatment. On that scale, the left endpoint, 0, was defined as no pain and the right endpoint 100, as the worst pain the patient could imagine. There were no further marks on the line. The intensity of pain was indicated by the distance in millimeters from the left end. Patients were asked to grade the pain intensity immediately after the administration of drugs and every three hour after for 24 hours by drawing a vertical line over each VAS line. The doctors who prescribed the medicines obtained all the VAS forms for that specific patient.
Data are expressed as means±SD. Differences in VAS were analyzed with use of the unpaired Student t test and differences in pain score reductions between the two groups were analyzed with use of the Mann-Whitney U test for the median difference. Similar statistical tests were used for between group comparisons of other outcome variables as appropriate. A two tailed P value of less than. […] SAS software was used for the statistical analysis.
We considered that a clinically significant benefit of using […] and slow release tramadol would be a reduction in the pain score (VAS) of at least 15% compared to the monotherapy with either tramadol hydrochloride or naproxen or placebo. Alternatively, the dose reduction of at least 15% of either NSAID or tramadol when used as combination over the monotherapy as significant benefit

[1] = VAS time 0 hours, scale 0-100 mm

Row | Structure (SMILES) | Pain scored by VAS [1] | Pain scored by VAS (VAS time 3 hours) | Pain scored by VAS (VAS time 6 hours) | Pain scored by VAS (VAS time 9 hours) | Pain scored by VAS (VAS time 12 hours) | Pain scored by VAS (VAS time 15 hours) | Pain scored by VAS (VAS time 18 hours) | Pain scored by VAS (VAS time 21 hours) | Pain scored by VAS (VAS time 24 hours)
1 | COc1cccc([C@@]2(O)CCCC[C@@H]2CN(C)C)c1 (racemic) [Treatment A, (±) cis-2-[(dimethylamino)methyl]-1-(3-methoxyphenyl)cyclo-hexanol hydrochloride] | 32.4 ± 21.2 mm | 23.1 ± 20.1 mm | 18.8 ± 20.6 mm | 14.9 ± 17.2 mm | 13.1 ± 21.2 mm | 13.9 ± 19.2 mm | 15.4 ± 21.3 mm | 14.5 ± 19.2 mm | 13.9 ± 19.2 mm
2 | COc1ccc2cc([C@H](C)C(=O)O)ccc2c1 [Treatment B, (+)-(S)-2-(6-methoxynaphthalen-2-yl)propanoic acid] | 33.9 ± 19.1 mm | 18.5 ± 19.1 mm | 13.9 ± 21.1 mm | 13.8 ± 20.3 mm | 14.6 ± 18.6 mm | 17.1 ± 21.5 mm | 18.9 ± 19.7 mm | 20.1 ± 18.3 mm | 24.8 ± 20.9 mm
